According to patent publication US20250163057A1, “DCN-1 MODULATING COMPOUNDS AND METHODS OF USE THEREOF” (Cellarity, Inc., priority 2023, published 2025):
Read-outs that look alike come from different tables or passages of the source.

Experiments:
[1] = target: DCN1 (DCUND1) protein PONY domain (Homo sapiens (Human), UniProt Q96GG9); test: TR-FRET assay, DCN1 binding with FAM-labeled probe
How it was run: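 Tb-DCN1 PONY domain (E. coli, biotin/streptavidin-Tb); FAM-labelled non-covalent inhibitor probe; TritonX buffer, 200 mM NaCl; 5 nM DCN1 + 20 nM probe or 0.31 nM DCN1 + 900 nM total probe; 0.1% DMSO; TR-FRET read 1, 5, 24 hrs.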

[2] = test system: fetal hemoglobin protein; test: HbF HPLC Cell Culture Assay; assay type: cell-based; details: for EC50: 336 h, HbF induction, Day 14 of culture; for Hemoglobin HPLC Ymax obs (%): relative to a control compound
How it was run: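 Cells were expanded in SFEM with CC100 and TPO, then differentiated through three erythroid media phases (EPO 2.5 U/ml, holo-transferrin, insulin, plus SCF, and IL-3 in phase 1). Compound was re-added at each passage (treatment day, days 0, 3, 5, 7, 10, 12). Fetal hemoglobin was quantified by HPLC on pellets from terminal day 14.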

[3] = 24 hr after treatment with compound, read-out: TR FRET IC50 24 hr
[4] = read-out: TR FRET IC50 1 hr, 1 hr after treatment with compound
[5] = TR FRET IC50 1 hr (nM), 1 hr after treatment with compound

Sequence of DCN1 (DCUND1) protein PONY domain (Q96GG9 60-248): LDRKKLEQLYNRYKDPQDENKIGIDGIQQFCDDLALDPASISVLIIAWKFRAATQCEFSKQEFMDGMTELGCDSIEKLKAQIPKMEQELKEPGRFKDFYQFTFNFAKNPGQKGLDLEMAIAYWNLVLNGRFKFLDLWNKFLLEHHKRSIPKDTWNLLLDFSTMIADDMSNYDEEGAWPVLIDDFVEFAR

Row | Compound | IC50 [1, 3] [nM] | IC50 [1, 4] [nM] | EC50 [2] [nM] | Hemoglobin HPLC Ymax obs (%) [2] | IC50 [1, 5] [nM]
1 | CCN1C(=O)[C@@H](NC(=O)c2cccc(C(F)(F)F)c2)[C@@H](C2CC2)c2c(C(=O)N3[C@H](C#N)C[C@H]4C[C@H]43)nn(C3CCOCC3)c21 [Compound I-256, N-((4S,5S)-3-((1R,3S,5R)-3-cyano-2-azabicyclo[3.1.0]hexane-2-carbonyl)-4-cyclopropyl-7-ethyl-6-oxo-1-(tetrahydro-2H-pyran-4-yl)-4,5,6,7-tetrahydro-1H-pyrazolo[3,4-b]pyridin-5-yl)-3-(trifluoromethyl)benzamide] | ≤ 200 | ≤ 200 | 50 to 200 | ++ (Hemoglobin HPLC Ymax greater than 65.0 and less than or equal to 100.0) | –
2 | CCN1C(=O)[C@@H](NC(=O)c2cccc(C(F)(F)F)c2)[C@@H](c2ccc(F)cc2)c2c(C(=O)N3[C@H](C#N)C[C@H]4C[C@H]43)nn(-c3ccccc3)c21 [Compound I-277] | ≤ 200 | ≤ 200 | ≤ 50 | ++ (Hemoglobin HPLC Ymax greater than 65.0 and less than or equal to 100.0) | –
3 | CCN1C(=O)[C@@H](NC(=O)c2cccc(C(F)(F)F)c2)[C@@H](c2ccc(F)cc2)c2c(C(=O)N3CCC[C@H]3C#N)nn(-c3ccccc3)c21 [Compound I-278] | ≤ 200 | – | > 200 | + (Hemoglobin HPLC Ymax greater than or equal to 0.0 and less than or equal to 65.0) | 200 to 1000
4 | CCN1C(=O)[C@@H](NC(=O)c2cccc(C(F)(F)F)c2)[C@@H](c2ccc(F)cc2)c2c(C(=O)N3CCNCC3C#N)nn(C3CCOCC3)c21 (stereo partly shown) [Compound I-334] | ≤ 200 | ≤ 200 | 50 to 200 | ++ (Hemoglobin HPLC Ymax greater than 65.0 and less than or equal to 100.0) | –
5 | CCN1C(=O)[C@@H](NC(=O)c2cccc(C(F)(F)F)c2)[C@@H](c2ccc(F)cc2)c2c(C(=O)N3CCC[C@H]3C#N)nn(C3CCOCC3)c21 [Compound I-350] | ≤ 200 | ≤ 200 | ≤ 50 | ++ (Hemoglobin HPLC Ymax greater than 65.0 and less than or equal to 100.0) | –
6 | CCN1C(=O)[C@@H](NC(=O)c2cccc(C(F)(F)F)c2)[C@@H](C2CC2)c2c(C(=O)N3C[C@H](F)C[C@H]3C#N)nn(C3CCOCC3)c21 [Compound I-372] | ≤ 200 | ≤ 200 | 50 to 200 | ++ (Hemoglobin HPLC Ymax greater than 65.0 and less than or equal to 100.0) | –
7 | CCN1C(=O)[C@@H](NC(=O)c2cccc(C(F)(F)F)c2)[C@@H](C2CC2)c2c(C(=O)N3C[C@H](OC)C[C@H]3C#N)nn(C3CCOCC3)c21 [Compound I-377] | ≤ 200 | ≤ 200 | 50 to 200 | ++ (Hemoglobin HPLC Ymax greater than 65.0 and less than or equal to 100.0) | –
8 | CCN1C(=O)[C@@H](NC(=O)c2cccc(C(F)(F)F)c2)[C@@H](C2CC2)c2c(C(=O)N3CC[C@H](OC)[C@H]3C#N)nn(C3CCOCC3)c21 [Compound I-418] | ≤ 200 | ≤ 200 | ≤ 50 | +++ (Hemoglobin HPLC Ymax greater than 100.0) | –
9 | CCN1C(=O)[C@@H](NC(=O)c2cccc(C(F)(F)F)c2)[C@@H](C2CC2)c2c(C(=O)N(C)[C@H](C)C#N)nn(C3CCOCC3)c21 [Compound I-422] | ≤ 200 | ≤ 200 | 50 to 200 | ++ (Hemoglobin HPLC Ymax greater than 65.0 and less than or equal to 100.0) | –
10 | CCN1C(=O)[C@@H](NC(=O)c2cccc(C(F)(F)F)c2)[C@@H](C2CCC2)c2c(C(=O)N3CCC[C@H]3C#N)nn(C3CCOCC3)c21 [Compound I-692] | ≤ 200 | – | > 200 | ++ (Hemoglobin HPLC Ymax greater than 65.0 and less than or equal to 100.0) | 200 to 1000
